Measured values taken from patent publication US20240190910A1, “HEMI-CITRATE SALTS OF GABA-A POSITIVE […] AND CRYSTALLINE FORM THEREOF” (priority 2021, published 2024).
Values joined by “and” are separate entries in the source; they are usually repeats but may differ in a detail not shown here. Equal entries are not always repeated. Structures can show the parent of a compound that is named as a salt. Where two headings read alike, the source gives them in different places.

Tests used:
Type in all cases: physicochemical
[1] = Dynamic vapor sorption (DVS) hygroscopicity
Procedure: DVS was measured via a SMS (Surface Measurement System) DVS Intrinsic. Parameters for DVS data collection were as follows:
A second endotherm (having an onset at 121.5° C.) associated with melting of the dehydrated phase (ΔH: 15.20 J/g) was followed by a rapid decomposition as temperature continued to increase (FIG. 3). Because of the low onset of dehydration, the DVS was measured at both room temperature and at 40° C. to predict the stability of the crystalline phase at 40° C. […] A 1.5% weight loss was observed between 95% and 20% RH, and a 2.9% weight loss was observed between 20% and 0% RH, for a total loss of […] across the entire cycle. […] After measuring the hygroscopicity by DVS, an XRPD pattern was collected for comparison to the original material and found to correspond well to the pattern of the room temperature sample post-DVS temperature cycle (FIG. 6).

[2] = True density by helium pycnometry
Procedure: The equipment used was a Micromeritics AccuPyc II 1340, and the test parameters are set forth below. Testing was performed in duplicate (assuming target <2% variability achieved).
The true density of the material was determined by Helium Pycnometry.
The equipment used in this study was a Micromeritics AccuPyc II 1340, and the test parameters are the same as described in Example 10. The testing was performed in duplicate (assuming target <2% variability achieved).

[3] = Compaction characterization by Heckel analysis (yield pressure, strain rate sensitivity, crushing strength); conditions: for Yield pressure Fast (300 mm/s) / Yield pressure Slow (0.1 mm/s): summary of runs (± spread); for Strain rate sensitivity: yield pressure at 300 mm/s compared to 0.1 mm/s
Procedure: The aim of the Heckel test is to compress the material under controlled conditions to derive the yield pressure of the bulk material. A known weight of material is compressed within a 10 mm diameter die with flat faced punches moving at a set speed. The force on the punch is accurately measured at frequent intervals whilst the displacement of the punches is used to calculate the volume of the powder. The yield pressure is calculated at slow and fast punch speeds to assess the time-dependent component to deformation of the material.
A known weight of pure drug is compacted to theoretical zero porosity using 10 mm diameter flat faced punches. The Compaction Simulator was used under the following conditions:
During compression the location of the punch tips are accurately determined, and the force measured by load cells producing a record of the primary compression parameters. Temperature and humidity were monitored at intervals during the test.
The data were analyzed by the Compaction Analysis software program to generate values for yield pressure (Py) using the Heckel equation:
where • D=the relative density of the compact; • P=Pressure applied; and • K=Gradient of the line in the linear region; [Reference: R. W. Heckel. Trans. Metall. Soc. AIME 221 (1961)1001-1008].
For some materials, the deformation characteristics change with rate of applied force. This can be estimated by calculating the Strain Rate Sensitivity. The yield pressure at high speed compression is compared to that at slow speed using the following equation: […]

[4] = Tablet chemical stability: C17 epimer generation on storage at 40° C./75% RH; conditions: tablet dosage form, sealed bottle, 1 or 2 months, compared with mono-citrate salt
Procedure: FIG. 12 is a graph comparing the amount of the C17 epimer, a degradation product of Compound 1, over time for a tablet formulation containing Compound 1 hemi-citrate salt (Form I; left column in both “1 month” and “2 months”) or Compound 1 mono-citrate salt (Form A; right column in both “1 month” and “2 months”) in sealed bottles stored at 40° C./75% RH).

[5] = Tablet dissolution: percent release of Compound 1 from acidified tablet formulation
Procedure: FIG. 13 is a graph showing percent release of Compound 1 over time for an acidified tablet formulation containing Compound 1 hemi-citrate salt Form I. Tablets were used initially or maintained at 40° C./75% RH for 2 weeks, 1 month, or 2 months.
FIG. 14 is a graph showing percent release of Compound 1 over time for an acidified tablet formulation containing Compound 1 mono-citrate salt (Form A). Tablets were used initially or stored at 40° C./75% RH for 2 weeks, 1 month, or 2 months.

[6] = Gelation experiments in aqueous media; conditions: for concentration at which rapidly gelled: 0.1 N HCl media; for gelation in water or pH 7.4 buffer: 0.5-10 mg/mL
Procedure: To confirm these findings, controlled experiments were conducted where the free base, mono-citrate, and hemi-citrate salts of Compound 1 were dissolved in aqueous media at concentrations between 0.5 mg/mL and 10 mg/mL. The dissolution experiments were performed in either 0.1 N HCl, water, or pH 7.4 buffer as aqueous media.

[7] = fast speed 300 mm/s, individual runs, 21.7° C./38.9% RH
[8] = slow speed 0.1 mm/s, individual runs, 21.6° C./37.1% RH

With `COC[C@@]1(O)CC[C@@]2(C)[C@@H](CC[C@@H]3[C@@H]2CC[C@]2(C)[C@@H](C(=O)Cn4ccnc4)CC[C@@H]32)C1` [Compound 1 hemi-citrate salt Form I] the “total loss (DVS)” value ([1]; 40° C.) was 5.4%, the “water absorption from 20% to 80% RH (DVS)” value ([1]; 40° C.) was 1.8% and the “water lost between 95% and 20% RH (DVS)” value ([1]; 40° C.) was 2.2%. The “water lost from 20% to 0% RH (DVS)” value ([1]; 40° C.) was 3.2%, the hygroscopicity ([1]; DVS at room temperature and 40° C.) was “slightly hygroscopic” and the “total loss across the entire cycle (DVS)” value ([1]; room temperature) was 4.3%. The “water uptake between 20% and 80% RH (DVS)” value ([1]; room temperature) was 1.2%, the “weight loss between 20% and 0% RH (DVS)” value ([1]; room temperature) was 2.9% and the “weight loss between 95% and 20% RH (DVS)” value ([1]; room temperature) was 1.5%. For the same compound, the true density mean [2] was 1.2621 g/mL, the Compact observations [3] was “Ok and Chipped and Capped” and the “Ejection Force” value [3] was 0.416 kN and 0.445 kN and 0.479 kN and 0.747 kN and 0.736 kN and 0.745 kN. The “Peak Force of Upper punch” value [3] was 20.607 kN and 21.683 kN and 19.936 kN and 14.028 kN and 13.909 kN and 14.571 kN, the “Yield Pressure” value [3] was 67.480 MPa and 73.595 MPa and 67.397 MPa and 83.127 MPa and 80.626 MPa and 89.401 MPa and the “Yield pressure Fast (300 mm/s)” value ([3]; fast speed 300 mm/s) was 84.38 MPa (±4.52). The “Yield pressure Slow (0.1 mm/s)” value ([3]; slow speed 0.1 mm/s) was 69.49 MPa (±3.55) and the Strain rate sensitivity [3] was 21.4%.

In the case of `COC[C@@]1(O)CC[C@@]2(C)[C@@H](CC[C@@H]3[C@@H]2CC[C@]2(C)[C@@H](C(=O)Cn4ccnc4)CC[C@@H]32)C1` [Compound 1 hemi-citrate salt], the “degradation product (C17-epimer) generated” value [4] is reported as “less degradation product”, the “susceptibility to dissolution slow-down of the tablet” value ([5]; compared with Compound 1 mono-citrate salt) is reported as “less susceptible” and the “release of Compound 1 from an acidified formulation over time” value ([5]; initial and tablet stored in open dish at 40° C./75% RH for 2 weeks, 1 month, 2 months, compared with mono-citrate salt) is reported as “greater”. For the same compound, the “gelation in aqueous media” value ([6]; 0.1 N HCl, water, or pH 7.4 buffer, concentrations up to 10 mg/mL) was “did not gel”.

In the case of `COC[C@@]1(O)CC[C@@]2(C)[C@@H](CC[C@@H]3[C@@H]2CC[C@]2(C)[C@@H](C(=O)Cn4ccnc4)CC[C@@H]32)C1.O=C(O)CC(O)(CC(=O)O)C(=O)O` [Compound 1 mono-citrate salt Form A], the true density mean [2] is reported as 1.2666 g/mL, the Compact observations [3, 7] is reported as “Laminated” and the Compact strength [3, 7] is reported as 9.75 Kiloponds and 12.38 Kiloponds and 5.09 Kiloponds. For the same compound, the “Ejection Force” value [3, 7] was 0.740 kN and 0.649 kN and 0.719 kN, the “Peak Force of Upper punch” value [3, 7] was 14.137 kN and 14.545 kN and 14.488 kN and the “Yield Pressure” value [3, 7] was 105.169 MPa and 111.204 MPa and 110.483 MPa. For the same compound, the Compact observations [3, 8] was “Ok”, the Compact strength [3, 8] was 15.99 Kiloponds and 17.94 Kiloponds and 15.97 Kiloponds and 16.04 Kiloponds and the “Ejection Force” value [3, 8] was 0.603 kN and 0.426 kN and 0.518 kN and 0.462 kN. The “Peak Force of Upper punch” value [3, 8] was 18.227 kN and 22.470 kN and 20.499 kN and 22.020 kN, the “Yield Pressure” value [3, 8] was 70.114 MPa and 92.323 MPa and 85.677 MPa and 90.406 MPa and the “Yield pressure Fast (300 mm/s)” value ([3]; fast speed 300 mm/s) was 108.95 MPa (±3.30). The “Yield pressure Slow (0.1 mm/s)” value ([3]; slow speed 0.1 mm/s) was 84.63 MPa (±10.07) and the Strain rate sensitivity [3] was 28.7%.

With `COC[C@@]1(O)CC[C@@]2(C)[C@@H](CC[C@@H]3[C@@H]2CC[C@]2(C)[C@@H](C(=O)Cn4ccnc4)CC[C@@H]32)C1.O=C(O)CC(O)(CC(=O)O)C(=O)O` [Compound 1 mono-citrate salt] the “concentration at which rapidly gelled” value [6] was 5000 µg/mL and the “gelation in water or pH 7.4 buffer” value [6] was “did not gel”.

For `COC[C@@]1(O)CC[C@@]2(C)[C@@H](CC[C@@H]3[C@@H]2CC[C@]2(C)[C@@H](C(=O)Cn4ccnc4)CC[C@@H]32)C1` [Compound 1, 3α-hydroxy-3β-methoxymethyl-21-(1′-imidazolyl)-5α-pregnan-20-one], the “concentration at which rapidly gelled” value [6] was 1000 µg/mL and the “gelation in water or pH 7.4 buffer” value [6] was “did not gel”.
